Laboratory results taken from PubChem BioAssay AID1918947 (Molecular Pharmacology Branch, DTP, NCI, 2023).

System: A498 complex spheroid viability
Test: Anticancer human tumor A498 cell line growth inhibition;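 note: spheroids exposed to agents for seven days before readout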;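 for viability, T/C: 100% = DMSO vehicle-treated spheroids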
Settings: for IC50: curve of first compound; for viability, T/C: stronger effect = lower value
Method in brief: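 Multicellular complex spheroids of tumor cells with human endothelial cells (HUVEC) and mesenchymal stem cells; the LSD1 inhibitor iadademstat was combined with standard-of-care or investigational agents. Top concentration at or near clinical Cmax, half-log dilutions; final DMSO ≤0.25%.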

[1] = second compound 0.1 µM, first compound 0.0316 µM
[2] = second compound 0.1 µM, first compound 0.1 µM
[3] = second compound 0.316 µM, first compound 0.0316 µM
[4] = second compound 0.316 µM, first compound 0.1 µM
[5] = second compound 1 µM, first compound 0.0316 µM
[6] = second compound 1 µM, first compound 0.1 µM
[7] = second compound 3.16 µM, first compound 0.0316 µM
[8] = second compound 3.16 µM, first compound 0.1 µM
[9] = second compound 10 µM, first compound 0.0316 µM
[10] = second compound 10 µM, first compound 0.1 µM

With `CC1COCCN1c1cc(C2(S(C)(=N)=O)CC2)nc(-c2ccnc3[nH]ccc23)n1` (stereo not given) + NC1CCC(NC2CC2c2ccccc2)CC1 the IC50 (second compound 0.1 µM) was 648 nM, the IC50 (second compound 0.316 µM) was 784 nM and the IC50 (second compound 1 µM) was 677 nM. For the same compound, the IC50 (second compound 3.16 µM) was 590 nM, the IC50 (second compound 10 µM) was 507 nM and the viability, T/C [1] was 91.8%. It also gave a viability, T/C [2] of 89%, a viability, T/C (second compound 0.1 µM, first compound 0.316 µM) of 70.7% and a viability, T/C (second compound 0.1 µM, first compound 1 µM) of 37.2%. The viability, T/C (second compound 0.1 µM, first compound 3.16 µM) was 18.2%, the viability, T/C (second compound 0.1 µM, first compound 10 µM) was 12% and the viability, T/C [3] was 99%. The viability, T/C [4] was 96.9%, the viability, T/C (second compound 0.316 µM, first compound 0.316 µM) was 82.8% and the viability, T/C (second compound 0.316 µM, first compound 1 µM) was 40.6%. For the same compound, the viability, T/C (second compound 0.316 µM, first compound 3.16 µM) was 18.9%, the viability, T/C (second compound 0.316 µM, first compound 10 µM) was 11.2% and the viability, T/C [5] was 86.8%. For the same compound, the viability, T/C [6] was 94%, the viability, T/C (second compound 1 µM, first compound 0.316 µM) was 72.4% and the viability, T/C (second compound 1 µM, first compound 1 µM) was 37.6%. The viability, T/C (second compound 1 µM, first compound 3.16 µM) was 19.6%, the viability, T/C (second compound 1 µM, first compound 10 µM) was 11.4% and the viability, T/C [7] was 81.3%. For the same compound, the viability, T/C [8] was 85.6%, the viability, T/C (second compound 3.16 µM, first compound 0.316 µM) was 69.7% and the viability, T/C (second compound 3.16 µM, first compound 1 µM) was 32.7%. It also gave a viability, T/C (second compound 3.16 µM, first compound 3.16 µM) of 17.6%, a viability, T/C (second compound 3.16 µM, first compound 10 µM) of 12.3% and a viability, T/C [9] of 76.6%. The viability, T/C [10] was 75.9%, the viability, T/C (second compound 10 µM, first compound 0.316 µM) was 60.8% and the viability, T/C (second compound 10 µM, first compound 1 µM) was 33.9%. For the same compound, the viability, T/C (second compound 10 µM, first compound 3.16 µM) was 17.9% and the viability, T/C (second compound 10 µM, first compound 10 µM) was 12.8%.
With `CC(C)CC(NC(=O)C(Cc1ccccc1)NC(=O)c1cnccn1)B(O)O` (stereo not given) + NC1CCC(NC2CC2c2ccccc2)CC1 the IC50 (second compound 0.1 µM) was 0.966 nM, the IC50 (second compound 0.316 µM) was 0.876 nM and the IC50 (second compound 1 µM) was 0.765 nM. It also gave an IC50 (second compound 3.16 µM) of 0.635 nM, an IC50 (second compound 10 µM) of 0.527 nM and a viability, T/C (second compound 0.1 µM, first compound 0.000316 µM) of 82.1%. For the same compound, the viability, T/C (second compound 0.1 µM, first compound 0.001 µM) was 49%, the viability, T/C (second compound 0.1 µM, first compound 0.00316 µM) was 3.94% and the viability, T/C (second compound 0.1 µM, first compound 0.01 µM) was 1.24%. The viability, T/C [1] was 0.46%, the viability, T/C [2] was 0.48% and the viability, T/C (second compound 0.316 µM, first compound 0.000316 µM) was 90.5%. It also gave a viability, T/C (second compound 0.316 µM, first compound 0.001 µM) of 44.7%, a viability, T/C (second compound 0.316 µM, first compound 0.00316 µM) of 3.08% and a viability, T/C (second compound 0.316 µM, first compound 0.01 µM) of 1.09%. It also gave a viability, T/C [3] of 0.41%, a viability, T/C [4] of 0.97% and a viability, T/C (second compound 1 µM, first compound 0.000316 µM) of 84.5%. The viability, T/C (second compound 1 µM, first compound 0.001 µM) was 39.5%, the viability, T/C (second compound 1 µM, first compound 0.00316 µM) was 2.52% and the viability, T/C (second compound 1 µM, first compound 0.01 µM) was 0.84%. The viability, T/C [5] was 1.13%, the viability, T/C [6] was 0.61% and the viability, T/C (second compound 3.16 µM, first compound 0.000316 µM) was 78.5%. The viability, T/C (second compound 3.16 µM, first compound 0.001 µM) was 31.5%, the viability, T/C (second compound 3.16 µM, first compound 0.00316 µM) was 1.91% and the viability, T/C (second compound 3.16 µM, first compound 0.01 µM) was 0.54%. It also gave a viability, T/C [7] of 0.31%, a viability, T/C [8] of 0.35% and a viability, T/C (second compound 10 µM, first compound 0.000316 µM) of 67.6%. The viability, T/C (second compound 10 µM, first compound 0.001 µM) was 28%, the viability, T/C (second compound 10 µM, first compound 0.00316 µM) was 1.67% and the viability, T/C (second compound 10 µM, first compound 0.01 µM) was 0.4%. The viability, T/C [9] was 0.26% and the viability, T/C [10] was 0.41%.
